Data from patent US20140066363A1, “CARBOHYDRATE NANOPARTICLES FOR PROLONGED EFFICACY OF ANTIMICROBIAL PEPTIDE” (priority 2011, published 2014).

What was measured:
Format in all cases: cell-based, Listeria monocytogenes
[1] = system: L. monocytogenes; assay: Control storage of emulsions in regular test tubes at 4° C. with bioassay; conditions: 150 μg/mL nisin
Description: The label “free nisin” denotes the preparation containing nisin only in buffer. The total initial concentration of nisin was 150 μg/mL for each preparation. One portion of each preparation was applied to the model system (labeled “Model”), and another portion was stored in a regular test tube as the control (labeled “Control”). Both model and control groups were aliquoted after various storage periods for the activity tests.
Nisin activity, either for those freshly prepared or stored in BHI agar deep-well, was determined as described by Pongtharangkul and Demirci (2004) with modifications. Agar diffusion bioassay was used to determine the nisin activity against L. monocytogenes. BHI (3.7%) solution containing 0.75% agar and 1.0% Tween 20 was prepared and autoclaved. After cooling to approximately 40° C., the solution was inoculated by a 1.0% volume of BHI broth containing L. monocytogenes V7 (ca. 108 colony-forming units/mL). To each square Petri-dish plate (10×10 cm), a 32 mL inoculated BHI agar solution was added and allowed to solidify. Thereafter, holes with 7.0 mm diameter were made using a cork borer, and 100 μL of each nisin preparation was added to each agar well. The Petri-dish plates were then incubated for 24 h at room temperature, and the size of inhibitory ring was measured to indicate the activity against L. monocytogenes. […]

[2] = system: L. monocytogenes V7; assay: BHI-agar deep-well model of nisin depletion (50 days, 4° C.) with bioassay, emulsions
Description: To prepare emulsions, PG-OS and WCS-OS were each dissolved in sodium acetate buffer (50 mM, pH 5.5, 22° C.) to form a solution of 10 mg/mL. As a reference, 1.0 mg/mL of Tween 20 solution was also prepared using the sodium acetate buffer. Vegetable oil was added to each emulsifier solution, at twice (for PG-OS and WCS-OS) or 20 times (Tween 20) the weight of the emulsifier. […] Each mixture was further diluted with the same volume of sodium acetate buffer. […] These emulsions were sterilized using a boiling-water bath for 3 min before further tests. Nisin activity, either for those freshly prepared or stored in BHI agar deep-well, was determined as described by Pongtharangkul and […] (2004) with modifications. Agar diffusion bioassay was used to determine the nisin activity against L. monocytogenes. […] After cooling to approximately 40° C., the solution was inoculated by a 1.0% volume of BHI broth containing L. monocytogenes V7 (ca. 108 colony-forming units/mL). To each square Petri-dish plate (10×10 cm), a 32 mL inoculated BHI agar solution was added and allowed to solidify. […] The Petri-dish plates were then incubated for 24 h at room temperature, and the size of inhibitory ring was measured to indicate the activity against L. monocytogenes. […] The hot solution (225 mL) was poured into a 600-mL beaker to a height of 40 mm. After gel solidification, four wells (from gel surface to bottom) were made in each beaker using a 7.0-mm borer.

[3] = system: L. monocytogenes; assay: BHI-agar deep-well model of nisin depletion (21 days, 4° C.) with bioassay, PG derivatives
Description: Nisin activity, either for those freshly prepared or stored in BHI agar deep-well, was determined as described by Pongtharangkul and Demirci (2004) with modifications. Agar diffusion bioassay was used to determine the nisin activity against L. monocytogenes. BHI (3.7%) solution containing 0.75% agar and 1.0% Tween 20 was prepared and autoclaved. After cooling to approximately 40° C., the solution was inoculated by a 1.0% volume of BHI broth containing L. monocytogenes V7 (ca. 108 colony-forming units/mL). To each square Petri-dish plate (10×10 cm), a 32 mL inoculated BHI agar solution was added and allowed to solidify. Thereafter, holes with 7.0 mm diameter were made using a cork borer, and 100 μL of each nisin preparation was added to each agar well. The Petri-dish plates were then incubated for 24 h at room temperature, and the size of inhibitory ring was measured to indicate the activity against L. monocytogenes.
In this study, a BHI-agar deep-well model was established to mimic the depletion of nisin at nutrient-containing surfaces, such as a food surface (FIG. 1). BHI is a nutritious culture medium that supplies protein and other nutrients necessary to support the growth of fastidious and nonfastidious microorganisms. It contains infusions from calf brains and beef hearts, proteose and peptone, dextrose, sodium chloride, and disodium phosphate. […] Therefore, BHI is an ideal nutrient model for studying nisin depletion and retention. Our experiments have consistently shown that BHI-containing broths and gels lead to rapid depletion of peptide activity. In a deep well filled with a liquid peptide preparation, peptide molecules diffuse from the solution into the gel (causing diffusion-based depletion), and BHI components diffuse from the agar gel into the solution (causing irreversible peptide adsorption or degradation).
For continuous sampling at various stages of storage, nisin preparations were added to the deep wells of the BHI-agar gel. For the deep-well storage, the inner surface of a well was used to mimic the outer surface of solid food. […]

[4] = initial nisin 150 μg/mL, calculated from ring size by standard curve

Substance: nisin [free nisin]
- change of inhibitory ring size during storage, control groups [1]: did not show an appreciable change
- size of inhibitory ring after 40 days, model groups ([2]; deep-well model, 4° C., 150 μg/mL nisin): undetectable
- available nisin after 5 days [2, 4]: 10.2 µg/mL
- available nisin after 20 days [2, 4]: < 1 µg/mL
- available nisin after 40 days [2, 4]: negligible
- retained activity at day 5 ([3]; deep wells in BHI-agar gel, summary): negligible
- residual nisin activity after 7 days ([3]; deep-well model, 4° C., 100 μg/mL nisin): negligible
- nisin activity at 0 day ([3]; deep-well model, initial test, 100 μg/mL nisin): highest nisin activity
